Common to all, as to assay: NCI-60 cell line screen, 48 h
Assay [1] concerns M14 melanoma.
Assay [2] has as its system SN12C renal.
Assay [3] concerns HCT-116 colon.
For assay [4], the system named is SK-MEL-28 melanoma.
Assay [5] concerns UACC-257 melanoma.
The subject of assay [6] is HT29 colon.
The test system of assay [7] is OVCAR-3 ovarian.
Assay [8] concerns NCI-H226 lung.
Assay [9] concerns SNB-75 CNS.

SMILES strings stand for the structures.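 How tested: cells in 96-well plates exposed to compound for 48 hours at five concentrations. Definition used: TGI = concentration required for complete inhibition of growth.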

`COc1ccc(Cc2c3cc(O)c(=O)cc-3ccn2C)cc1`: the TGI is 30.5 µM in assay [1]; above 100 µM in assay [2]; above 100 µM in [3]; above 92.9 µM in assay [4]; above 89.8 µM in assay [5]; above 100 µM in assay [6]. In addition, the TGI in assay [7] is above 100 µM; in assay [8] it was 83.3 µM; in assay [9], above 100 µM.

Consider `CC(C)(C)C1=CC(=C(P(=O)(O)O)P(=O)(O)O)C=C(C(C)(C)C)C1=O`, for which the TGI in assay [1], in assay [3], in assay [4], in [5], in [6] and in [7] was above 50 µM throughout. Further, the TGI in assay [8] and in assay [9] was above 50 µM throughout.

Consider `CC(C)N(C(=O)C12C3C4C5(C#N)C3C1(C#N)C5C42C#N)C(C)C` (stereo not given), for which the TGI in [2], in [3], in assay [4], in assay [5], in assay [6] and in assay [7] was above 100 µM each time. Besides, the TGI in [8] and in assay [9] was above 100 µM throughout.

With `O=C(/C=C\c1ccccc1O)c1ccc(O)cc1O`, the TGI in assay [1], in [2], in [3], in assay [4], in [5] and in assay [6] was above 100 µM each time. Also, the TGI in assay [7] and in assay [8] was above 100 µM in each case.

In the case of `O=C1C=C(Nc2ccc(Cl)cc2Cl)c2ccccc2C1=O`, the TGI in [1] was 57.8 µM; in assay [2] it was above 100 µM; in [3], above 100 µM; in assay [4], above 100 µM; in [5] it was above 100 µM; in assay [6] it was above 100 µM. The TGI in [7] is above 100 µM; in [8] it was 87.2 µM; in [9] it was 70.4 µM.

Regarding `Cc1c(C)c2ccc3oc4ccccc4c3c2oc1=O`, the TGI in assay [1], in assay [2], in assay [3], in assay [4], in assay [5] and in assay [6] was above 100 µM in each case. Also, the TGI in [7], in assay [8] and in [9] was above 100 µM each time.

`COC(=O)c1cc2c(=O)n(C)c3ccccc3n2c1C(=O)OC`: the TGI in assay [1], in assay [2], in assay [4], in assay [5], in assay [6] and in assay [7] was above 100 µM in each case. Moreover, the TGI in assay [8] is 81.2 µM; in assay [9] it was 37.3 µM.

As for `CCOC(OC(C)=O)[C@@H]1C=C[C@H](C)N(c2ccc([N+](=O)[O-])cc2)O1` (stereo not given in full), the TGI was 9.44 µM in assay [1]; 22.3 µM in assay [2]; 2.61 µM in [3]; 9.62 µM in assay [4]; 26.9 µM in [5]; 11.4 µM in assay [6]. Also, the values for the TGI in [7], in assay [8] and in assay [9] were 15.7 µM, 14 µM and 25.9 µM, respectively.

For the molecule `CSc1ccc2c(cc1=O)[C@@H](NC(=O)c1cccc([N+](=O)[O-])c1)CCc1cc(O)c(O)c(O)c1-2`, the TGI in [1] was above 100 µM; in [2] it was 88.9 µM; in [3] it was 35.9 µM; in [4] it was above 100 µM; in assay [5] it was above 100 µM; in [6], above 100 µM. The TGI is above 100 µM in assay [7], 57.9 µM in assay [8] and 86.1 µM in assay [9].

As for `CCC[C@H]1O[C@@H]2CC(=O)O[C@@H]2C2=C1C(=O)C=CC2=O`, the TGI came to 32.8 µM in assay [1]; 32.6 µM in assay [2]; 32.1 µM in assay [3]; 31.5 µM in assay [4]; 34.8 µM in [5]; 43.3 µM in [6]. For the same molecule, the values for the TGI in [7], in [8] and in assay [9] were 28.5 µM, 18.4 µM and 36 µM, respectively.

As to `CN(CCS(=O)(=O)N1C(=O)C2CCCN2C(=O)[C@@H]1Cc1ccccc1)C(=O)OCc1ccccc1` (stereo not given in full), the TGI in [1], in assay [2], in assay [3], in assay [4], in [5] and in assay [6] was above 100 µM throughout. The TGI in assay [7], in [8] and in assay [9] was above 100 µM each time.

Consider `N#C/C(=C\c1cc(O)cc(O)c1)C(N)=O`, for which the TGI in assay [1], in [2], in [3], in assay [4], in assay [5] and in assay [6] was above 100 µM in each case. For the same molecule, the TGI in assay [7], in [8] and in assay [9] was above 100 µM each time.

Turning to `C=CCC1(CN(C)C)CC/C(=C\c2ccc(OC)cc2)C1=O` (stereo not given), the TGI in [1], in assay [2], in assay [3], in assay [4], in assay [5] and in assay [6] was above 100 µM each time. Moreover, the TGI in assay [7], in [8] and in assay [9] was above 100 µM in each case.

For `C=C[C@@H](C)[C@]1(C(=O)OC)CCCC12OCCO2`, the TGI in assay [1], in [2], in assay [3], in assay [4], in [5] and in assay [6] was above 100 µM each time. Also, the TGI in assay [7], in [8] and in [9] was above 100 µM each time.

`CC1(C)OC2C(CCP(=O)(O)O)OC(c3nc(C(N)=O)cs3)C2O1` (stereo not given): the TGI in [1], in assay [2], in assay [3], in assay [4], in assay [5] and in [6] was above 100 µM in each case. The TGI in [8] and in assay [9] was above 100 µM in each case.

The values above are taken from PubChem BioAssay (NCI).
